Experimental data as given in patent US20080187556A1 (priority 2005, published 2008).
Converted amounts (≈) assume the structure as drawn. Ends that are not written are not given here.

Key:
mononuclear phagocytes = system: mononuclear phagocytes; set-up: species or system mice; details: mouse, in vivo
H22 hepatic carcinoma = system: H22 hepatic carcinoma; set-up: species or system mice; details: mouse, in vivo
S180 sarcoma = system: S180 sarcoma; set-up: species or system mice; details: mouse, in vivo
BGC-823 = assay: cells; type: cell-based; details: Homo sapiens
CaEs-17 = assay: cells; type: cell-based; details: Homo sapiens, CaEs17
Tca83 = assay: cells; type: cell-based; details: Homo sapiens
PC-3M = assay: cells; type: cell-based; details: Homo sapiens
Ketr-3 = assay: cells; type: cell-based; details: Homo sapiens, KETR3
A549 = assay: cells; type: cell-based; details: Homo sapiens
EJ = assay: cells; type: cell-based; details: Homo sapiens
HCT-8 = assay: cells; type: cell-based; details: Homo sapiens
A431 = assay: cells; type: cell-based; details: Homo sapiens, A-431
MCF-7 = assay: cells; type: cell-based; details: Homo sapiens, MCF7
HeLa = assay: cells; type: cell-based; details: Homo sapiens
HELF = assay: cells; type: cell-based; details: Homo sapiens
KB = assay: cells; type: cell-based; details: Homo sapiens
Hep-2 = assay: cells; type: cell-based; details: Homo sapiens
Bel7402 = assay: cells; type: cell-based; details: Homo sapiens, Bel-7402
[1] = set-up: species or system mice; details: mouse, in vivo

For `O=P1(N(CCCl)CCCl)NCCCO1` (stereo not shown) [Cyclophosphamide], the “Index of phagocytosis, K” value (mononuclear phagocytes) was 0.0744 ± 0.0081, the “Phagocytosis activity, α” value (mononuclear phagocytes) was 4.4614 ± 0.2413 and the “pathological picture of tumor tissue” value (H22 hepatic carcinoma) was “necrotic and degenerated tissue scattered”. The “pathological picture of tumor tissue” value (S180 sarcoma) was “necrotic and degenerated tissue scattered”.

With RKDVY [thymopentin] the “pathological picture of tumor tissue” value (H22 hepatic carcinoma) was “a little of tumor cell necrosis and degeneration” and the “pathological picture of tumor tissue” value (S180 sarcoma) was “a few tumor cells were necrotic and degenerative”.

With `O=c1[nH]cc(F)c(=O)[nH]1` [Fluorouracil] the IC50 (BGC-823) was 0.632 ± 0.0572 µg/mL (≈ 4.86 µM), the IC50 (CaEs-17) was 0.757 ± 0.0254 µg/mL (≈ 5.82 µM) and the IC50 (Tca83) was 0.924 ± 0.0435 µg/mL (≈ 7.1 µM). The IC50 (PC-3M) was 1.49 ± 1.07 µg/mL (≈ 11.4 µM), the IC50 (Ketr-3) was 0.634 ± 0.0147 µg/mL (≈ 4.87 µM) and the IC50 (A549) was 0.425 ± 0.034 µg/mL (≈ 3.27 µM). It also gave an IC50 (EJ) of 3.69 ± 0.909 µg/mL (≈ 28.4 µM), an IC50 (HCT-8) of 0.605 ± 0.0278 µg/mL (≈ 4.65 µM) and an IC50 (A431) of 0.174 ± 0.0447 µg/mL (≈ 1.34 µM). For the same compound, the IC50 (MCF-7) was 0.646 ± 0.0437 µg/mL (≈ 4.97 µM), the IC50 (HeLa) was 0.613 ± 0.05 µg/mL (≈ 4.71 µM) and the IC50 (HELF) was 0.087 ± 0.004 µg/mL (≈ 0.669 µM). The IC50 (KB) was 0.66 ± 0.0085 µg/mL (≈ 5.07 µM), the IC50 (Hep-2) was 4.88 ± 2.22 µg/mL (≈ 37.5 µM) and the IC50 (Bel7402) was 0.718 ± 0.0067 µg/mL (≈ 5.52 µM).

With “Thymosin Alpha-1 (SDAAVDTSSEITTKDLKEKKEVVEEAEN; not fully specified (N-terminus); ends and bridges not checked; UniProt P06454 2-29, looked up) [biological drug, registration No. H20050339]” the “Index of phagocytosis, K” value (mononuclear phagocytes) was 0.3473 ± 0.0130, the “Phagocytosis activity, α” value (mononuclear phagocytes) was 7.9583 ± 0.5069 and the Elongation index [1] was 37.5%. For the same compound, the Swimming time [1] was 18.9 ± 2.98 min.
